Test results published in patent publication US9340590B2 (priority 2011, dated 2016).
Read-outs that look alike come from different tables or passages of the source. Positions of bridges follow the written chain, without caps; N, C: chain ends. Non-standard residues stand in square brackets, D forms with d. Residues, ends and D or L forms follow the SMILES beside them. *: point of attachment. 1Nal = N[C@@H](Cc1cccc2ccccc12)C(=O)O; Arg(Me) = CNC(=N)NCCC[C@H](N)C(=O)O; Pent4ynoyl = C#CCCC(=O)*; Dab = NCC[C@H](N)C(=O)O; Nva = CCC[C@H](N)C(=O)O; Abu = CC[C@H](N)C(=O)O

Tests used:
Assay in all cases: cell-based
hNav1.5 = hNav1.5 (Homo sapiens, UniProt Q14524)
hNav1.3 = hNav1.3 (Homo sapiens, UniProt Q9NY46); conditions: IonWorks Quattro, hNav1.3, read-out: IWQ Use Nav1.3
hNav1.7 = hNav1.7 (Homo sapiens, UniProt Q15858); type: cell-based; conditions: IonWorks Quattro, hNav1.7, read-out: IWQ Use Nav1.7
[1] = IonWorks Quattro, use-dependent block, hNav1.5, read-out: IWQ Use Nav1.5

Chain of hNav1.7 (Q15858 whole entry, looked up): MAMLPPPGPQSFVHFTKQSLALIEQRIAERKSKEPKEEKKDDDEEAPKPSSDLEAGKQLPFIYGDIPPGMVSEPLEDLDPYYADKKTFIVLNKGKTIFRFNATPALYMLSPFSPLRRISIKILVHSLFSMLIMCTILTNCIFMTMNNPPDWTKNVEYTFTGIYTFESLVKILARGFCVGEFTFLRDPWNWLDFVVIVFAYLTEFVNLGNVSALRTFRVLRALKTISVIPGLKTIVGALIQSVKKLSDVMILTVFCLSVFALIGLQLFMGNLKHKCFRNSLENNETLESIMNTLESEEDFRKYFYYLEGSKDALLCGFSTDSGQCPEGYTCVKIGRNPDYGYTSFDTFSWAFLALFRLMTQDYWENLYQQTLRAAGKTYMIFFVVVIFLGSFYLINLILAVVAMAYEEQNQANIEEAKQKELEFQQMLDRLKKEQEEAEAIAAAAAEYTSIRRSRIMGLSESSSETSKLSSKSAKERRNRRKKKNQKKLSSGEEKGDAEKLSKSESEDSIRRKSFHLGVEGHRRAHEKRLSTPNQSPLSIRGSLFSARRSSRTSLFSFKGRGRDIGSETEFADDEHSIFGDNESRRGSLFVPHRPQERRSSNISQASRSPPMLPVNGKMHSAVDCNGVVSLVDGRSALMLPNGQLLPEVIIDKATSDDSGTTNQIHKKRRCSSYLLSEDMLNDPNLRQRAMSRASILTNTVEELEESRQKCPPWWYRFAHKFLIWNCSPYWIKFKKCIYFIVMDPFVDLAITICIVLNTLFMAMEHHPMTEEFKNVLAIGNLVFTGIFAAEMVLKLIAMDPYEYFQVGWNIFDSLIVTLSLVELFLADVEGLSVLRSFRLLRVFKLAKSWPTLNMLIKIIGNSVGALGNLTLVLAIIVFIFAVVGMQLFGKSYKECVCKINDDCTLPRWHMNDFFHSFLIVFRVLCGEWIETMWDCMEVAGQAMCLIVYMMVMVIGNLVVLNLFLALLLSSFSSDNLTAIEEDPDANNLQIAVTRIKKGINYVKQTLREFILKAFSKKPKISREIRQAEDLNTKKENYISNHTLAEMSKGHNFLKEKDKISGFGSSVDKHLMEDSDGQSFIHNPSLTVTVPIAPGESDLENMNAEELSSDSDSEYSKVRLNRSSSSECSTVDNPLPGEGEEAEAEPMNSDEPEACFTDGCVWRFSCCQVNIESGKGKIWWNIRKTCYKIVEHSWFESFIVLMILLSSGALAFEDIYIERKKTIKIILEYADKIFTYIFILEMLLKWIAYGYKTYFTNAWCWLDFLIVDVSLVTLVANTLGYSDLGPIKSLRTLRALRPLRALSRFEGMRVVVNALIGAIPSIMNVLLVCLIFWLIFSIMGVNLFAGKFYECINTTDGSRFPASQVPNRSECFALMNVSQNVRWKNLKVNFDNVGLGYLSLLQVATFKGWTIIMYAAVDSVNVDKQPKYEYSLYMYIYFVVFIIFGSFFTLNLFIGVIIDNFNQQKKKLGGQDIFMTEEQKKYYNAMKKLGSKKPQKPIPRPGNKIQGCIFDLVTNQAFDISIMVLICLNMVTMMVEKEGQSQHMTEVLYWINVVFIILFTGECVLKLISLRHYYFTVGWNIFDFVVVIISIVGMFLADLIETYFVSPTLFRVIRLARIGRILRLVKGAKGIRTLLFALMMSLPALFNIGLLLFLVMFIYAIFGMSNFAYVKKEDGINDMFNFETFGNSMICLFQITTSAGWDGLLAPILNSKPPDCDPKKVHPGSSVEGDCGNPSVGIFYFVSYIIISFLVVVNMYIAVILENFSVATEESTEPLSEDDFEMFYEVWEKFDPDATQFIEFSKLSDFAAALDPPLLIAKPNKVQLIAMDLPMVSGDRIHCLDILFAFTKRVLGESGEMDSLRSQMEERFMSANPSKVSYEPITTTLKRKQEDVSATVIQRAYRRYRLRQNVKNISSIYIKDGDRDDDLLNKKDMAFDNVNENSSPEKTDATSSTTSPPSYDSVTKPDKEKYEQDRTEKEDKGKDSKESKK
Chain of hNav1.3 (Q9NY46 whole entry, looked up): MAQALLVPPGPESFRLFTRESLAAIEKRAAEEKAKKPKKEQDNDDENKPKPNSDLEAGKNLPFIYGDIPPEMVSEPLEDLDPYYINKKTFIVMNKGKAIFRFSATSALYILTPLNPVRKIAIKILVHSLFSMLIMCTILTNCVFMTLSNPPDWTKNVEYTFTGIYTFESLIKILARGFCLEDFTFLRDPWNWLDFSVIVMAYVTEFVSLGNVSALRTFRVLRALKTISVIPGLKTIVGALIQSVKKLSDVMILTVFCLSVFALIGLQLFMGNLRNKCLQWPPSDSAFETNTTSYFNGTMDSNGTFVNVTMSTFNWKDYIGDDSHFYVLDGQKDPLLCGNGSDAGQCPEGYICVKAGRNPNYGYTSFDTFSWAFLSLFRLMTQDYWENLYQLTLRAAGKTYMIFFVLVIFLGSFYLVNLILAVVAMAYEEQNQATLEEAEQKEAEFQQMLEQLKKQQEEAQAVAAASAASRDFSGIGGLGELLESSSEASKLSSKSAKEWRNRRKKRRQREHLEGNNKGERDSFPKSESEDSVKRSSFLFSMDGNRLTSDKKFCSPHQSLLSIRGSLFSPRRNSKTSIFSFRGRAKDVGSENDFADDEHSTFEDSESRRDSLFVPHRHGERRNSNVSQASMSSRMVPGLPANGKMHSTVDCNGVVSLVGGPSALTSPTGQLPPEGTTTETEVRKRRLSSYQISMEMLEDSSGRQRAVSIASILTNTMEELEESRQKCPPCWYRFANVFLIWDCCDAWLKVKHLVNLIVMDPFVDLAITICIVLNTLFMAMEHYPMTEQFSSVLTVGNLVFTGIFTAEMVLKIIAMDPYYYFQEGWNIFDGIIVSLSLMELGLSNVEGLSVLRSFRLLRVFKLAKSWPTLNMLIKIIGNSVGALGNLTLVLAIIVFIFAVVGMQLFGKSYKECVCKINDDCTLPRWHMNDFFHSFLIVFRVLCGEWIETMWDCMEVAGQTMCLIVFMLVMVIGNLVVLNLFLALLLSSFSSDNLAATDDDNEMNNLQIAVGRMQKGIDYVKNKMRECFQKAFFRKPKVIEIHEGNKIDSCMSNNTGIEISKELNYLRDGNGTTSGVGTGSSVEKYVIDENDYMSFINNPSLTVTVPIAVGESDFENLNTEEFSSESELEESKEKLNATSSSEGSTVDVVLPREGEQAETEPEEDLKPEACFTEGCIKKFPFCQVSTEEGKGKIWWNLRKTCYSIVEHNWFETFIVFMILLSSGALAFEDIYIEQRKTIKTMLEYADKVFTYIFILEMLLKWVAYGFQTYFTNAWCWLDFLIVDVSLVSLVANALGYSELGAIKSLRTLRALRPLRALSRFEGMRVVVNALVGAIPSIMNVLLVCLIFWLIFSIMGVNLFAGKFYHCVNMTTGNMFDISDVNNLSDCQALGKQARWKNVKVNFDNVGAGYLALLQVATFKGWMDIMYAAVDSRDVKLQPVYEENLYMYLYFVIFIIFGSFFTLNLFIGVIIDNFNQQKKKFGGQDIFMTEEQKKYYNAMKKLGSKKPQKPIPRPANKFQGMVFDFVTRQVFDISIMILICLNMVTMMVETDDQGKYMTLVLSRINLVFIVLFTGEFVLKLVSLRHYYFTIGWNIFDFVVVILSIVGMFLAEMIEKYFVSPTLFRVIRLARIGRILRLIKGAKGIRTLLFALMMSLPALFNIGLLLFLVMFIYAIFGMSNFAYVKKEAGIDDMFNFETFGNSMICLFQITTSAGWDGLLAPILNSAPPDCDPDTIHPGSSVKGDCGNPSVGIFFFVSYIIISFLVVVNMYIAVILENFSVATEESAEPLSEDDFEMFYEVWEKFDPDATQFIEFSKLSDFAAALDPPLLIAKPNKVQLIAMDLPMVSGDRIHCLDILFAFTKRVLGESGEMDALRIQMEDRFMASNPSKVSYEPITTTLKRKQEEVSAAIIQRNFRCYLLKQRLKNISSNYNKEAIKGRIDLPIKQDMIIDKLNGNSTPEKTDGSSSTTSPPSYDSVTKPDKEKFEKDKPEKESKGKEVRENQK

SMILES	IC50 (hNav1.5; [1]) [µM]	IC50 (hNav1.3; use-dependent block) [µM]	IC50 (hNav1.7; use-dependent block) [µM]	IC50 (hNav1.5; IWQ Use Nav1.5) [µM]	IC50 (hNav1.3; use-dependent protocol) [µM]	IC50 (hNav1.7; use-dependent protocol) [µM]	IC50 (hNav1.5; IonWorks Quattro, use-dependent protocol, hNav1.5, read-out: IWQ Use Nav1.5) [µM]
CC[C@H](C)[C@@H]1NC(=O)[C@@H]2CSSC[C@@H]3NC(=O)[C@H](C(C)C)NC(=O)[C@H](CC(C)C)NC(=O)[C@H](CC(N)=O)NC(=O)[C@@H]4CCCN4C(=O)[C@H](CCCNC(=N)N)NC(=O)[C@H](CSSC[C@H](NC(=O)[C@@H](N)CC(=O)O)C(=O)N[C@@H](CC(C)C)C(=O)NCC(=O)N[C@@H](Cc4ccccc4)C(=O)N[C@@H](CCSC)C(=O)N[C@@H](CCCNC(=N)N)C(=O)N[C@@H](CCCCN)C(=O)N2)NC(=O)[C@H](CSSC[C@@H](C(=O)N[C@@H](CCCCN)C(=O)N[C@@H](Cc2ccc(O)cc2)C(=O)N[C@@H](Cc2cccc4ccccc24)C(=O)N[C@@H](Cc2ccccc2)C(N)=O)NC(=O)[C@H](Cc2c[nH]c4ccccc24)NC(=O)[C@H](CCCCN)NC(=O)[C@H](Cc2c[nH]cn2)NC(=O)[C@H](CC(C)C)NC(=O)[C@H](CCCNC(=N)N)NC(=O)[C@H](CO)NC3=O)NC(=O)[C@H](CCCCN)NC(=O)[C@H](CC(=O)O)NC(=O)[C@H](CC(N)=O)NC(=O)[C@H](CC(=O)O)NC(=O)[C@@H]2CCCN2C1=O [compound 463] (H-DCLGFMRKCIPDNDKCCRPNLVCSRLHKWCKY[1Nal]F-NH2; disulfide 2-17, 9-23, 16-30)	> 5	0.18	0.13	–	–	–	–
CC[C@H](C)[C@@H]1NC(=O)[C@@H]2CSSC[C@@H]3NC(=O)[C@H](C(C)C)NC(=O)[C@H](CC(C)C)NC(=O)[C@H](CC(N)=O)NC(=O)[C@@H]4CCCN4C(=O)[C@H](CCCNC(=N)N)NC(=O)[C@H](CSSC[C@H](NC(=O)[C@@H](N)CC(=O)O)C(=O)N[C@@H](CC(C)C)C(=O)NCC(=O)N[C@@H](C)C(=O)N[C@@H](CC(C)C)C(=O)N[C@@H](CCCNC(=N)N)C(=O)N[C@@H](CCCCN)C(=O)N2)NC(=O)[C@H](CSSC[C@@H](C(=O)N[C@@H](CCCCN)C(=O)N[C@@H](Cc2ccc(O)cc2)C(=O)N[C@H](C(=O)N[C@@H](Cc2ccccc2)C(=O)O)C(C)C)NC(=O)[C@H](Cc2c[nH]c4ccccc24)NC(=O)[C@H](CCCNC(=N)N)NC(=O)[C@H](Cc2c[nH]cn2)NC(=O)[C@H]([C@@H](C)O)NC(=O)[C@H](CCCNC(=N)N)NC(=O)[C@H](CO)NC3=O)NC(=O)[C@H](CCCCN)NC(=O)[C@H](CC(=O)O)NC(=O)[C@H](Cc2c[nH]cn2)NC(=O)[C@H](CC(=O)O)NC(=O)[C@@H]2CCCN2C1=O [compound 864] (H-DCLGALRKCIPDHDKCCRPNLVCSRTHRWCKYVF-OH; disulfide 2-17, 9-23, 16-30)	> 5	3.9	> 5	–	–	–	–
CC[C@H](C)[C@@H]1NC(=O)[C@@H]2CSSC[C@@H]3NC(=O)[C@H](C(C)C)NC(=O)[C@H](CC(C)C)NC(=O)[C@H](CC(N)=O)NC(=O)[C@@H]4CCCN4C(=O)[C@H](CCCNC(=N)N)NC(=O)[C@H](CSSC[C@H](NC(=O)[C@@H](N)CC(=O)O)C(=O)N[C@@H](CC(C)C)C(=O)NCC(=O)N[C@@H](C)C(=O)N[C@@H](Cc4ccccc4)C(=O)N[C@@H](CCCNC(=N)N)C(=O)N[C@@H](CCCCN)C(=O)N2)NC(=O)[C@H](CSSC[C@@H](C(=O)N[C@@H](CCCCN)C(=O)N[C@@H](Cc2ccc(O)cc2)C(=O)N[C@H](C(=O)N[C@@H](Cc2ccccc2)C(=O)O)C(C)C)NC(=O)[C@H](Cc2c[nH]c4ccccc24)NC(=O)[C@H](CCCNC(=N)N)NC(=O)[C@H](Cc2c[nH]cn2)NC(=O)[C@H]([C@@H](C)O)NC(=O)[C@H](CCCNC(=N)N)NC(=O)[C@H](CO)NC3=O)NC(=O)[C@H](CCCCN)NC(=O)[C@H](CC(=O)O)NC(=O)[C@H](C(C)C)NC(=O)[C@H](CC(=O)O)NC(=O)[C@@H]2CCCN2C1=O [compound 851]	> 5	1.7	> 5	–	–	–	–
CC[C@H](C)[C@@H]1NC(=O)[C@@H]2CSSC[C@@H]3NC(=O)[C@H](C(C)C)NC(=O)[C@H](CC(C)C)NC(=O)[C@H](CC(N)=O)NC(=O)[C@@H]4CCCN4C(=O)[C@H](CCCNC(=N)N)NC(=O)[C@H](CSSC[C@H](NC(=O)[C@@H](N)CC(=O)O)C(=O)N[C@@H](CC(C)C)C(=O)NCC(=O)N[C@@H](C)C(=O)N[C@@H](CCSC)C(=O)N[C@@H](CCCNC(=N)N)C(=O)N[C@@H](CCCCN)C(=O)N2)NC(=O)[C@H](CSSC[C@@H](C(=O)N[C@@H](CCCCN)C(=O)N[C@@H](Cc2ccc(O)cc2)C(=O)N[C@H](C(=O)N[C@@H](Cc2ccccc2)C(N)=O)C(C)C)NC(=O)[C@H](Cc2c[nH]c4ccccc24)NC(=O)[C@H](CCCNC(=N)NC)NC(=O)[C@H](Cc2c[nH]cn2)NC(=O)[C@H]([C@@H](C)O)NC(=O)[C@H](CCCNC(=N)N)NC(=O)[C@H](CO)NC3=O)NC(=O)[C@H](CCCCN)NC(=O)[C@H](CC(=O)O)NC(=O)[C@H](CC(N)=O)NC(=O)[C@H](CC(=O)O)NC(=O)[C@@H]2CCCN2C1=O [compound 745] (H-DCLGAMRKCIPDNDKCCRPNLVCSRTH[Arg(Me)]WCKYVF-NH2; disulfide 2-17, 9-23, 16-30)	40	0.5	0.25	–	–	–	–
CC[C@H](C)[C@@H]1NC(=O)[C@@H]2CSSC[C@@H]3NC(=O)[C@H](C(C)C)NC(=O)[C@H](CC(C)C)NC(=O)[C@H](CC(N)=O)NC(=O)[C@@H]4CCCN4C(=O)[C@H](CCCNC(=N)N)NC(=O)[C@H](CSSC[C@H](NC(=O)[C@@H](N)CC(=O)O)C(=O)N[C@@H](CC(C)C)C(=O)NCC(=O)N[C@@H](C)C(=O)N[C@@H](CCSC)C(=O)N[C@@H](CCCNC(=N)N)C(=O)N[C@@H](CCCCN)C(=O)N2)NC(=O)[C@H](CSSC[C@@H](C(=O)N[C@@H](CCCCN)C(=O)N[C@@H](Cc2ccc(O)cc2)C(=O)N[C@H](C(=O)N[C@@H](Cc2ccccc2)C(N)=O)C(C)C)NC(=O)[C@H](Cc2c[nH]c4ccccc24)NC(=O)[C@H](CCN)NC(=O)[C@H](Cc2c[nH]cn2)NC(=O)[C@H]([C@@H](C)O)NC(=O)[C@H](CCCNC(=N)N)NC(=O)[C@H](CO)NC3=O)NC(=O)[C@H](CCCCN)NC(=O)[C@H](CC(=O)O)NC(=O)[C@H](CC(N)=O)NC(=O)[C@H](CC(=O)O)NC(=O)[C@@H]2CCCN2C1=O [compound 762] (H-DCLGAMRKCIPDNDKCCRPNLVCSRTH[Dab]WCKYVF-NH2; disulfide 2-17, 9-23, 16-30)	23.3	0.86	0.32	–	–	–	–
CCCCCCCC[C@@H]1NC(=O)CNC(=O)[C@H](CC(C)C)NC(=O)[C@@H](NC(=O)[C@@H](N)CC(=O)O)CSSC[C@@H]2NC(=O)[C@@H]3CSSC[C@@H](C(=O)N[C@@H](CCCCN)C(=O)N[C@@H](Cc4ccc(O)cc4)C(=O)N[C@H](C(=O)N[C@@H](Cc4ccccc4)C(N)=O)C(C)C)NC(=O)[C@H](Cc4c[nH]c5ccccc45)NC(=O)[C@H](CCCCN)NC(=O)[C@H](Cc4c[nH]cn4)NC(=O)[C@H]([C@@H](C)O)NC(=O)[C@H](CCCNC(=N)N)NC(=O)[C@H](CO)NC(=O)[C@H](CSSC[C@H](NC(=O)[C@H](CCCCN)NC(=O)[C@H](CCCNC(=N)N)NC(=O)[C@H](CCSC)NC1=O)C(=O)N[C@@H]([C@@H](C)CC)C(=O)N1CCC[C@H]1C(=O)N[C@@H](CC(=O)O)C(=O)N[C@@H](CC(N)=O)C(=O)N[C@@H](CC(=O)O)C(=O)N[C@@H](CCCCN)C(=O)N3)NC(=O)[C@H](C(C)C)NC(=O)[C@H](CC(C)C)NC(=O)[C@H](CC(N)=O)NC(=O)[C@@H]1CCCN1C(=O)[C@H](CCCNC(=N)N)NC2=O [compound 677]	–	–	–	> 5	0.17	0.17	–
C#CCCC(=O)N[C@@H](CC(=O)O)C(=O)N[C@H]1CSSC[C@@H]2NC(=O)[C@@H]3CSSC[C@@H](C(=O)N[C@@H](CCCCN)C(=O)N[C@@H](Cc4ccc(O)cc4)C(=O)N[C@H](C(=O)N[C@@H](Cc4ccccc4)C(N)=O)C(C)C)NC(=O)[C@H](Cc4c[nH]c5ccccc45)NC(=O)[C@H](CCCNC(=N)N)NC(=O)[C@H](Cc4c[nH]cn4)NC(=O)[C@H]([C@@H](C)O)NC(=O)[C@H](CCCNC(=N)N)NC(=O)[C@H](CO)NC(=O)[C@H](CSSC[C@H](NC(=O)[C@H](CCCCN)NC(=O)[C@H](CCCNC(=N)N)NC(=O)[C@H](CC(C)C)NC(=O)[C@H](CCC)NC(=O)CNC(=O)[C@H](CC(C)C)NC1=O)C(=O)N[C@@H]([C@@H](C)CC)C(=O)N1CCC[C@H]1C(=O)N[C@@H](CC(=O)O)C(=O)N[C@@H](CC)C(=O)N[C@@H](CC(=O)O)C(=O)N[C@@H](CCCCN)C(=O)N3)NC(=O)[C@H](C(C)C)NC(=O)[C@H](CC(C)C)NC(=O)[C@H](CC(N)=O)NC(=O)[C@@H]1CCCN1C(=O)[C@H](CCCNC(=N)N)NC2=O [compound 759] (Pent4ynoyl-DCLG[Nva]LRKCIPD[Abu]DKCCRPNLVCSRTHRWCKYVF-NH2; disulfide 2-17, 9-23, 16-30)	46.2	0.23	0.1	–	–	–	–
CC[C@H](C)[C@@H]1NC(=O)[C@@H]2CSSC[C@@H]3NC(=O)[C@H](C(C)C)NC(=O)[C@H](CC(C)C)NC(=O)[C@H](CC(N)=O)NC(=O)[C@@H]4CCCN4C(=O)[C@H](CCCNC(=N)N)NC(=O)[C@H](CSSC[C@H](NC(=O)[C@@H](N)CC(=O)O)C(=O)N[C@@H](CC(C)C)C(=O)NCC(=O)N[C@@H](Cc4ccc(I)cc4)C(=O)N[C@@H](CC(C)C)C(=O)N[C@@H](CCCNC(=N)N)C(=O)N[C@@H](CCCCN)C(=O)N2)NC(=O)[C@H](CSSC[C@@H](C(=O)N[C@@H](CCCCN)C(=O)N[C@@H](Cc2ccc(O)cc2)C(=O)N[C@H](C(=O)N[C@@H](Cc2ccccc2)C(N)=O)C(C)C)NC(=O)[C@H](Cc2c[nH]c4ccccc24)NC(=O)[C@H](CCCCN)NC(=O)[C@H](Cc2c[nH]cn2)NC(=O)[C@H]([C@@H](C)O)NC(=O)[C@H](CCCNC(=N)N)NC(=O)[C@H](CO)NC3=O)NC(=O)[C@H](CCCCN)NC(=O)[C@H](CC(=O)O)NC(=O)[C@H](CC(N)=O)NC(=O)[C@H](CC(=O)O)NC(=O)[C@@H]2CCCN2C1=O [compound 667]	–	–	–	–	0.017	0.12	> 5
